# Test system: 379773-124-R-J2-PDC complex spheroids, viability % test/control
# Experiment: Anticancer human tumor 379773-124-R-J2-PDC patient-derived endometrial carcinoma cell line growth inhibition [CLK]
# Conditions: for IC50: curve of first compound; for viability, T/C: stronger effect = lower value
# Text: A high-throughput screen of multi-cell type tumor spheroids was designed to identify active combinations of […] and targeted small molecules. Complex spheroids include a stromal component modeled by human endothelial cells (HUVEC) and fibroblasts modeled by human mesenchymal stem cells (MSCs). The concentration ranges selected for each drug and investigational agent were based upon clinically achievable concentrations if the clinical Cmax of the agent was known.
# Compounds. The drugs and investigational agents: cirtuvivint (SM08502; NSC835563), CC-671 (NSC850746), vemurafenib (NSC761431), tapotoclax (NSC804041), sotorasib (NSC818433), adagrasib (NSC831453), MRTX-1133 (NSC836407), BAY2416964 (NSC825713), copanlisib (NSC816437), inavolisib (NSC800729), abemaciclib (NSC768073), osimertinib (NSC779217), entinostat (NSC756642), eltanexor (KPT-8602, NSC794443), venetoclax (NSC766270), ceralasertib (NSC777638), bortezomib (NSC756655), olaparib (NSC753686), talazoparib (NSC767125), alisertib (NSC759677), peposertib (NSC802822), gemcitabine (NSC613327), 5-fluorouracil (NSC19893), SN-38 (NSC673596), oxaliplatin (NSC266046), paclitaxel (NSC125973), and doxorubicin (NSC123127), were obtained from the National Cancer Institute (NCI) Developmental Therapeutics Program Chemical Repository. The FDA-approved anticancer drug set is available from the Developmental Therapeutics Program at https://dtp.cancer.gov/organization/dscb/obtaining/available plates.htm. […] The stock solutions were prepared in dimethyl sulfoxide (DMSO, Sigma-Aldrich, St. Louis, MO, cat. D2650), except for the platinum complexes which were prepared in saline (Quality Biological, Gaithersburg, MD, cat. 114-055-101), at 800-fold the tested concentration and stored at -70 degrees C prior to their use. All drugs and investigational agents were tested over a range starting from a high concentration at or near the clinical Cmax and decreasing in half-log increments. If the clinical Cmax for an agent had not been determined, the highest concentration tested was 10 microM.
# Cell Culture. All cells were maintained in an incubator at 37 degrees C and 5% CO2 with 95% humidity. The PDC lines were cultured according to standard operating procedures established by the NCI PDMR. Briefly, all PDCs were thawed and cultured in Matrigel-coated flasks prepared with a working solution of 1X Ham's F-12 nutrient mix, without supplementation (Invitrogen, Waltham, MA, cat. 11765054), 100 U/mL penicillin-streptomycin (Invitrogen, cat. 15140122), and 2.5% Matrigel (Corning Inc., Corning, NY, cat. 354248) for the first three passages. The 947758-054-R-J2-PDC line was cultured in 6B/Colon 1A media, which includes advanced DMEM/F-12 (Thermo Fisher Scientific, cat. 12634028), 10 mM HEPES (Thermo Fisher Scientific, cat. 15630080), 1X GlutaMAX supplement (Thermo Fisher Scientific, cat. 35050061), 0.1 mg/mL primocin (InvivoGen, cat. ant-pm-2), 10% defined fetal bovine serum, heat inactivated (HyClone Laboratories Inc., cat. SH30070.03HI), 1.25 mM N-Acetyl-L-cysteine (Sigma-Aldrich, cat. A9165), 10 mM nicotinamide (Sigma-Aldrich, cat. N0636), 1X B-27 supplement (Thermo Fisher Scientific, cat. 17504044), 1X N-2 supplement (Thermo Fisher Scientific, cat. 17502048), and 10 microM Y-27632 dihydrochloride (Tocris Bioscience, cat. 1254). The 876862-298-R-J1-PDC was cultured in 6E media, which includes all 6B/Colon 1A media components plus 50% L-WRN conditioned media (ATCC, cat. CRL-3276), 50 ng/mL recombinant human EGF recombinant protein (hEGF; Thermo Fisher Scientific, cat. PHG0311), 10 ng/mL recombinant human fibroblast growth factor 10 (hGFG-10; PeproTech, cat. 100-26), 1 ng/mL recombinant human fibroblast growth factor 2 (hFGF-2; PeproTech, cat. 100-18B), and 1 µM prostaglandin E2 (PGE2; Tocris, cat. 2296). The 227483-062-R1-J1-PDC line was cultured in Panc media, containing all 6E components except hFGF-2, with the addition of 500 nM SB-431542 (Selleckchem, cat. S1067) and 10 nM gastrin (Tocris, cat. 3006). […]
# 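Further: compound exposure lasted seven days before the viability readout.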
# 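Wherever viability, T/C is given: 100% = DMSO vehicle control wells.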
compound,measurement,setting,value
CC(Nc1ccc2c(c1)OCCn1cc(N3C(=O)OCC3C(F)F)nc1-2)C(N)=O (configuration not stated) + CN1CCN(c2cc(C(=O)Nc3cc4cc(-c5cnn(C)c5)ccc4cn3)ccn2)CC1,IC50,second compound 0.0316 µM,> 10000 nM
same,IC50,second compound 0.1 µM,8870 nM
same,IC50,second compound 0.316 µM,< 31.6 nM
same,IC50,second compound 1 µM,< 31.6 nM
same,IC50,second compound 3.16 µM,< 31.6 nM
same,IC50,second compound 10 µM,< 31.6 nM
same,"viability, T/C","second compound 0.0316 µM, first compound 0.0316 µM",85.2%
same,"viability, T/C","second compound 0.0316 µM, first compound 0.1 µM",89.8%
same,"viability, T/C","second compound 0.0316 µM, first compound 0.316 µM",69.3%
same,"viability, T/C","second compound 0.0316 µM, first compound 1 µM",89.3%
same,"viability, T/C","second compound 0.0316 µM, first compound 3.16 µM",68.6%
same,"viability, T/C","second compound 0.0316 µM, first compound 10 µM",62.5%
same,"viability, T/C","second compound 0.1 µM, first compound 0.0316 µM",92.4%
same,"viability, T/C","second compound 0.1 µM, first compound 0.1 µM",81.8%
same,"viability, T/C","second compound 0.1 µM, first compound 0.316 µM",87.2%
same,"viability, T/C","second compound 0.1 µM, first compound 1 µM",68.9%
same,"viability, T/C","second compound 0.1 µM, first compound 3.16 µM",84.2%
same,"viability, T/C","second compound 0.1 µM, first compound 10 µM",46.2%
same,"viability, T/C","second compound 0.316 µM, first compound 0.0316 µM",19.4%
same,"viability, T/C","second compound 0.316 µM, first compound 0.1 µM",22.5%
same,"viability, T/C","second compound 0.316 µM, first compound 0.316 µM",21.1%
same,"viability, T/C","second compound 0.316 µM, first compound 1 µM",18.9%
same,"viability, T/C","second compound 0.316 µM, first compound 3.16 µM",22.9%
same,"viability, T/C","second compound 0.316 µM, first compound 10 µM",11.4%
same,"viability, T/C","second compound 1 µM, first compound 0.0316 µM",0.15%
same,"viability, T/C","second compound 1 µM, first compound 0.1 µM",0.14%
same,"viability, T/C","second compound 1 µM, first compound 0.316 µM",0.75%
same,"viability, T/C","second compound 1 µM, first compound 1 µM",0.56%
same,"viability, T/C","second compound 1 µM, first compound 3.16 µM",0.08%
same,"viability, T/C","second compound 1 µM, first compound 10 µM",0.1%
same,"viability, T/C","second compound 3.16 µM, first compound 0.0316 µM",0.84%
same,"viability, T/C","second compound 3.16 µM, first compound 0.1 µM",0.13%
same,"viability, T/C","second compound 3.16 µM, first compound 0.316 µM",0.14%
same,"viability, T/C","second compound 3.16 µM, first compound 1 µM",0.52%
same,"viability, T/C","second compound 3.16 µM, first compound 3.16 µM",0.43%
same,"viability, T/C","second compound 3.16 µM, first compound 10 µM",0.48%
same,"viability, T/C","second compound 10 µM, first compound 0.0316 µM",0.1%
same,"viability, T/C","second compound 10 µM, first compound 0.1 µM",0.12%
same,"viability, T/C","second compound 10 µM, first compound 0.316 µM",0.71%
same,"viability, T/C","second compound 10 µM, first compound 1 µM",1.07%
same,"viability, T/C","second compound 10 µM, first compound 3.16 µM",0.4%
same,"viability, T/C","second compound 10 µM, first compound 10 µM",0.19%
